IC50 data for eight molecules are collected here from patent US20070129371A1, “Novel ethylenediamine derivatives” (Daiichi Pharmaceutical Co., Ltd., priority 2002, published 2007).

pIC50: −log10 of the molar value. Structures can show the parent of a compound that is named as a salt.

The target in this test is T1, human FXa (Homo sapiens, UniProt P00742).
T1 construct: purchased Enzyme Research Laboratories, Inc
T1 sequence (P00742 235-488 limits assumed): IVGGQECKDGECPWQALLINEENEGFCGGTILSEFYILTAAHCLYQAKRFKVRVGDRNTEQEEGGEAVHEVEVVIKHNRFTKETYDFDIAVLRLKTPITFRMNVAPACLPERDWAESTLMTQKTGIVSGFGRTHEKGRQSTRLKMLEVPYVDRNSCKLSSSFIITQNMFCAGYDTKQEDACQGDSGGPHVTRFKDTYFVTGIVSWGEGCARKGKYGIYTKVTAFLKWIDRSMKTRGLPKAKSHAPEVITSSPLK
T1 sequence (P00742 41-179 partner limits assumed): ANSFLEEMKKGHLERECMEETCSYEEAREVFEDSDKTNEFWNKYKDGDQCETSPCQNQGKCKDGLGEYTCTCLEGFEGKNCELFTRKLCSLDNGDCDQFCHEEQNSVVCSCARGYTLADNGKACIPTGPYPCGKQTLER
Description: Determination of human FXa-inhibiting effect (IC50 value). Format: biochemical. To be noted: S-2222 chromogenic substrate, absorbance at 405 nm, Tris buffer pH 7.4, room temperature. As for the experimental part:
A 5% DMSO solution (10 μl) of each test compound, the concentrations of which had been suitably set stepwise, and Tris buffer (100 mM Tris, 200 mM potassium chloride, 0.2% BSA, pH 7.4) (40 μl) and 0.0625 U/ml human FXa (Enzyme Research Laboratories, Inc., dissolved in and diluted with Tris buffer) (10 μl) were put in each of the wells of a 96-well microplate. A 750 μM aqueous solution (40 μl) of S-2222 (Chromogenix Co.) was added. Absorbance at 405 nm was measured for 10 minutes at room temperature to determine an increase in absorbance (ΔOD/min). As a control, Tris buffer was used in place of the test compound.
The percent inhibition (%) calculated using the following equation at the final concentration of the test compound and the final concentration of the test compound were plotted on the ordinate and abscissa of logarithmic probability paper, respectively, to determine the 50% inhibition concentration (IC50 value) Percent inhibition (%)=[1−(ΔOD/min of test compound)÷(ΔOD/min of control)]×100
`CN1CCc2nc(C(=O)NC(CNC(=O)C(=O)Nc3ccc(Cl)cn3)C(=O)N3CCS(=O)(=O)CC3)sc2C1` (centres unmarked) [Example 2, N^1-(5-Chloropyridin-2-yl)-N^2-(3-(1,1-dioxothiomorpholin-4-yl)-2-{[(5-methyl-4,5,6,7-tetrahydrothiazolo[5,4-c]pyridin-2-yl)carbonyl]amino}-3-oxopropyl)ethanediamide hydrochloride]: the pIC50 – broadly, the negative decadic logarithm of the IC50, by convention in mol/L – was 8.15.

On to `CN1CCc2nc(C(=O)N[C@@H](CNC(=O)C(=O)Nc3ccc(Cl)cn3)C(=O)N(C)C)sc2C1` [Example 26, N^1-(5-Chloropyridin-2-yl)-N^2-((2S)-3-(dimethylamino)-2-{[(5-methyl-4,5,6,7-tetrahydrothiazolo[5,4-c]pyridin-2-yl)carbonyl]amino}-3-oxopropyl)ethanediamide hydrochloride], for which the pIC50 was 8.62.

`CN1CCc2nc(C(=O)N[C@@H](CNC(=O)C(=O)Nc3ccc(Br)cn3)C(=O)N(C)C)sc2C1` [Example 37, N^1-(5-Bromopyridin-2-yl)-N^2-((2S)-3-(dimethylamino)-2-{[(5-methyl-4,5,6,7-tetrahydrothiazolo[5,4-c]pyridine-2-yl)carbonyl]amino}-3-oxopropyl)ethanediamide hydrochloride] had a pIC50 of 8.82.

On to `CN1CCc2nc(C(=O)N[C@@H](CNC(=O)C(=O)Nc3ccc(Br)cc3)C(=O)N(C)C)sc2C1` [Example 38, N^1-(4-Bromophenyl)-N^2-((2S)-3-(dimethylamino)-2-{[(5-methyl-4,5,6,7-tetrahydrothiazolo[5,4-c]pyridin-2-yl)carbonyl]amino}-3-oxopropyl)ethanediamide hydrochloride], for which the pIC50 is 9.09.

`CN1CCc2nc(C(=O)N[C@@H](CNC(=O)C(=O)Nc3ccc(Cl)cc3)C(=O)N(C)C)sc2C1` [Example 39, N^1-(4-Chlorophenyl)-N^2-((2S)-3-(dimethylamino)-2-{[(5-methyl-4,5,6,7-tetrahydrothiazolo[5,4-c]pyridin-2-yl)carbonyl]amino}-3-oxopropyl)ethanediamide hydrochloride] gave a pIC50 of 9.07.

In the case of `CN1CCc2nc(C(=O)N[C@@H](CNC(=O)C(=O)Nc3ccc(Cl)s3)C(=O)N(C)C)sc2C1` [Example 40, N^1-(5-Chlorothien-2-yl)-N^2-((2S)-3-(dimethylamino)-2-{[(5-methyl-4,5,6,7-tetrahydrothiazolo[5,4-c]pyridin-2-yl)carbonyl]amino}-3-oxopropyl)ethanediamide hydrochloride], the pIC50 is 8.89.

In the case of `CN1CCc2nc(C(=O)N[C@@H](CNC(=O)C(=O)Nc3ccc(Cl)cc3)c3cnco3)sc2C1` [Example 62, N^1-(4-Chlorophenyl)-N^2-[(2S)-2-{[(5-methyl-4,5,6,7-tetrahydrothiazolo[5,4-c]pyridin-2-yl)carbonyl]amino}-2-(1,3-oxazol-5-yl)ethyl]ethanediamide hydrochloride], the pIC50 is 8.74.

`C[C@@H](NC(=O)C(=O)Nc1ccc(Cl)cn1)[C@H](NC(=O)c1nc2c(s1)CN(C)CC2)C(=O)N(C)C` [Example 66, N^1-(5-Chloropyridin-2-yl)-N^2-((1R,2S)-3-(dimethylamino)-1-methyl-2-{[(5-methyl-4,5,6,7-tetrahydrothiazlo [5,4-c]pyridin-2-yl)carbonyl]amino}-3-oxopropyl)ethanediamide hydrochloride] had a pIC50 of 8.70.
